Experiment [1] has as its target T1, human CYP11B1 (Homo sapiens, UniProt P15538).
T1 construct: expressed in transfected cells
T1 sequence (P15538 25-503): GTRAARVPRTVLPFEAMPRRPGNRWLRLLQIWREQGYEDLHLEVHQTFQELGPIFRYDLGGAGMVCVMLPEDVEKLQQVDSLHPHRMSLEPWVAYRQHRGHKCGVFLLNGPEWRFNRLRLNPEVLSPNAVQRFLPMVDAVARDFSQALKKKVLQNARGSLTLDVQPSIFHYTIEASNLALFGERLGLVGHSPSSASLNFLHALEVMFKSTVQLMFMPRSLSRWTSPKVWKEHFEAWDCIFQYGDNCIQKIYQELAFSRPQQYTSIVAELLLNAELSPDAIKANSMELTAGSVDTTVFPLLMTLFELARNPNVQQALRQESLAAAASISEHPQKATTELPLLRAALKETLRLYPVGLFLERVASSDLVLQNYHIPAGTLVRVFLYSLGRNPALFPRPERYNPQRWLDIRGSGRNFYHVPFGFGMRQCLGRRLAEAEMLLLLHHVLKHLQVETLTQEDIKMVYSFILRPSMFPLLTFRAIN
Description: G-402 cellular enzyme assay, human CYP11B1 (cortisol release, HTRF). Format: cell-based. Conditions: G-402 cells expressing human CYP11B1; 1 μM Deoxycortisol; 16 h. An excerpt: (§1) Herein we identified the use of the G-402 cell line as a host cell to ectopically express (transiently or stably) enzymes of the CYP11 family. Specifically we developed stable G-402 cells expressing ectopically human CYP11B1, human CYP11B2, human CYP11A1, cynomolgus CYP11B1 or cynomolgus CYP11B2 enzyme activity. Importantly, the identified cell line G-402 expresses co-factors (adrenodoxin and adrenodoxin reductase) important for the activity of the CYP11 family, and no relevant enzyme activity of the CYP11 family (in comparison to H295R cells) was detected in these cells. Therefore the G-402 cell line is uniquely suited as a host cell for the ectopic expression of enzymes from the CYP11 family.
(§2) G-402 cells can be obtained from ATCC(CRL-1440) and were originally derived from a renal leiomyoblastoma.
(§3) The expression plasmids contains the ORF for either human/cyno CYP11B1 or CYP11B2 under the control of a suitable promoter (CMV-promoter) and a suitable resistance marker (neomycin). Using standard techniques the expression plasmid is transfected into G-402 cells and these cells are then selected for expressing the given resistance markers. Individual cell-clones are then selected and assessed for displaying the desired enzymatic activity using 11-Deoxycorticosterone (Cyp11B2) or 11-Deoxycortisol (Cyp11B1) as a substrate.
(§4) G-402 cells expressing CYP11 constructs were established as described above and maintained in McCoy's 5a Medium Modified, ATCC Catalog No. 30-2007 containing 10% FCS and 400 μg/ml G418 (Geneticin) at 37° C. under an atmosphere of 5% CO2/95% air. Cellular enzyme assays were performed in DMEM/F12 medium containing 2.5% charcoal treated FCS and appropriate concentration of substrate (0.3-10 uM 11-Deoxycorticosterone, 11-Deoxycortisol or Corticosterone). For assaying enzymatic activity, cells were plated onto 96 well plates and incubated for 16 h. An aliquot of the supernatant is then transferred and analyzed for the concentration of the expected product (Aldosterone for CYP11B2; Cortisol for CYP11B1). The concentrations of these steroids can be determined using HTRF assays from CisBio analyzing either Aldosterone or Cortisol.
(§5) Inhibition of the release of produced steroids can be used as a measure of the respective enzyme inhibition by test compounds added during the cellular enzyme assay. The dose dependent inhibition of enzymatic activity by a compound is calculated by means of plotting added inhibitor concentrations (x-axes) vs. measured steroid/product level (y-axes). The inhibition is then calculated by fitting the following 4-parameter sigmoidal function (Morgan-Mercer-Flodin (MMF) model) to the raw data points using the least squares method:
(§6) [formula] wherein A is the maximum y value, B is the EC50 factor determined using XLFit, C is the minimum y value and D is the slope value.
(§7) EC50 values for compounds claimed herein were tested with the G402-based assay system described. Cyp11B2 enzyme activity was tested in presence of 1 μM Deoxycorticosterone and variable amounts of inhibitors; Cyp11B1 enzyme activity was tested in presence of 1 μM Deoxycortisol and variable amounts of inhibitors.

Experiment [2] has as its target T2, human CYP11B2 (Homo sapiens, UniProt P19099).
T2 construct: expressed in transfected cells
T2 sequence (P19099 25-503): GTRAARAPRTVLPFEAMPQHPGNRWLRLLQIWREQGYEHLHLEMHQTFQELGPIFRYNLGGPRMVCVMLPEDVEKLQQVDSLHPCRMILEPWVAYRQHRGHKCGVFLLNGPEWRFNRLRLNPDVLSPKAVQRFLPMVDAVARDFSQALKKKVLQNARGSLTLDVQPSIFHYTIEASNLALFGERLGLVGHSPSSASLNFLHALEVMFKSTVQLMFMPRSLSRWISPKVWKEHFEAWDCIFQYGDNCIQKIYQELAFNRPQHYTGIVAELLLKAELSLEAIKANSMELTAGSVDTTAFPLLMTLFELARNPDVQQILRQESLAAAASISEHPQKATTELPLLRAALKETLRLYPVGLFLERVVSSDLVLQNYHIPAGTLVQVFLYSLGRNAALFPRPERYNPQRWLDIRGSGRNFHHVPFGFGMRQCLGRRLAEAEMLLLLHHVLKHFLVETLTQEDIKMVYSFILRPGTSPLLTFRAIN
Kind of experiment: G-402 cellular enzyme assay, human CYP11B2 (aldosterone release, HTRF). Format: cell-based. The following applies: G-402 cells expressing human CYP11B2; 1 μM Deoxycorticosterone; 16 h.
Excerpt: as §1, §2, §3, §4, §5, §6, §7

Each structure is given as a SMILES string.

Consider `Cn1cncc1C(=O)c1ccc(Cl)cc1` [Example 1, (4-Chloro-phenyl)-(3-methyl-3H-imidazol-4-yl)-methanone], for which the EC50 in experiment [1] was 195 nM; in experiment [2], 62.3 nM. On to `Cn1cncc1C(=O)c1ccc(C#N)cc1` [Example 2, 4-(3-Methyl-3H-imidazole-4-carbonyl)-benzonitrile], for which the EC50 in experiment [1] amounted to 368 nM; in experiment [2] it was 11.6 nM. On the same counts, the results for `Cn1cncc1C(=O)c1ccc(Cl)c(Cl)c1` [Example 3, (3,4-Dichloro-phenyl)-(3-methyl-3H-imidazol-4-yl)-methanone] are 167 nM and 4.9 nM.

Turning to `COc1ccc(C(=O)c2cncn2C)cc1` [Example 4, (4-Methoxy-phenyl)-(3-methyl-3H-imidazol-4-yl)-methanone], the EC50 in experiment [1] amounted to 3500 nM; in experiment [2] it was 118 nM. As to `CCn1cncc1C(=O)c1ccc(C#N)cc1` [Example 5, 4-(3-Ethyl-3H-imidazole-4-carbonyl)-benzonitrile], the figures for the concentration for a half-maximal effect (EC50) in experiment [1] and in experiment [2] were 46.8 nM and 2.6 nM, respectively. For the compound `CC(C)n1cncc1C(=O)c1ccc(C#N)cc1` [Example 6, 4-(3-Isopropyl-3H-imidazole-4-carbonyl)-benzonitrile], the results for the EC50 in experiment [1] and in experiment [2] were 4.5 nM and 0.8 nM, respectively. As to `CCn1cncc1C(=O)c1ccc(Cl)cc1` [Example 7, (4-Chloro-phenyl)-(3-ethyl-3H-imidazol-4-yl)-methanone], the half-maximal effective concentration (EC50) in experiment [1] came out at 65.9 nM; in experiment [2], 4.4 nM.

Consider `Cn1cncc1C(=O)c1ccc(C#N)cc1F` [Example 8, 3-Fluoro-4-(3-methyl-3H-imidazole-4-carbonyl)-benzonitrile], for which the EC50 came to 2500 nM in experiment [1] and 98.6 nM in experiment [2]. Take `Cn1cncc1C(=O)c1ccc(Cl)c(F)c1` [Example 9, (4-Chloro-3-fluoro-phenyl)-(3-methyl-3H-imidazol-4-yl)-methanone]: the EC50 was 187 nM in experiment [1] and 7.7 nM in experiment [2]. Consider `CC(C)n1cncc1C(=O)c1ccc(C#N)cc1F` [Example 10, 3-Fluoro-4-(3-isopropyl-3H-imidazole-4-carbonyl)-benzonitrile], for which the 50% effective concentration (EC50) in experiment [1] was found to be 70.3 nM; in experiment [2] it was 10.8 nM.

`Cn1cncc1C(=O)c1ccc(Cl)cc1Cl` [Example 11, (2,4-Dichloro-phenyl)-(3-methyl-3H-imidazol-4-yl)-methanone]: the figures for the EC50 in experiment [1] and in experiment [2] were 1800 nM and 216 nM, respectively. For the compound `CC(C)n1cncc1C(=O)c1cccc(Cl)c1` [Example 12, (3-Chloro-phenyl)-(3-isopropyl-3H-imidazol-4-yl)-methanone], the concentration giving a half-maximal response (EC50) in experiment [1] was found to be 5.3 nM; in experiment [2] it was 1.3 nM. Regarding `CC(C)n1cncc1C(=O)c1ccc(Cl)cc1` [Example 13, (4-Chloro-phenyl)-(3-isopropyl-3H-imidazol-4-yl)-methanone], the EC50 stood at 5.6 nM in experiment [1] and 2.1 nM in experiment [2]. For `CC(C)n1cncc1C(=O)c1ccc(Cl)c(Cl)c1` [Example 14, (3,4-Dichloro-phenyl)-(3-isopropyl-3H-imidazol-4-yl)-methanone], the EC50 amounted to 1.8 nM in experiment [1] and 0.5 nM in experiment [2]. Take `CCn1cncc1C(=O)c1ccc(Cl)c(Cl)c1` [Example 15, (3,4-Dichloro-phenyl)-(3-ethyl-3H-imidazol-4-yl)-methanone]: the values for the EC50 in experiment [1] and in experiment [2] were 20 nM and 1.8 nM, respectively. Take `CCC(C)n1cncc1C(=O)c1ccc(C#N)cc1` (stereo not shown) [Example 16, 4-(3-sec-Butyl-3H-imidazole-4-carbonyl)-benzonitrile]: the concentration for a half-maximal effect (EC50) in experiment [1] was 1 nM; in experiment [2] it was 0.7 nM. Regarding `CCC(C)n1cncc1C(=O)c1ccc(Cl)cc1` (stereo not shown) [Example 17], the values for the concentration for a half-maximal effect (EC50) in experiment [1] and in experiment [2] were 3.5 nM and 0.3 nM, respectively. For `N#Cc1ccc(C(=O)c2cncn2C2CC2)cc1` [Example 18, 4-(3-Cyclopropyl-3H-imidazole-4-carbonyl)-benzonitrile], the 50% effective concentration (EC50) is 28.7 nM in experiment [1] and 2.3 nM in experiment [2]. In the case of `O=C(c1ccc(Cl)cc1)c1cncn1C1CC1` [Example 19, (4-Chloro-phenyl)-(3-cyclopropyl-3H-imidazol-4-yl)-methanone], the concentration for a half-maximal effect (EC50) in experiment [1] turned out to be 52.9 nM; in experiment [2], 6.1 nM. In the case of `N#Cc1ccc(C(=O)c2cncn2CC(F)(F)F)cc1` [Example 20, 4-[3-(2,2,2-Trifluoro-ethyl)-3H-imidazole-4-carbonyl]-benzonitrile], the half-maximal effective concentration (EC50) in experiment [1] stood at 190 nM; in experiment [2], 23.5 nM. On the same counts, the results for `Cn1cncc1C(=O)c1cccc(C#N)c1` [Example 21, 3-(3-Methyl-3H-imidazole-4-carbonyl)-benzonitrile] are 8710 nM and 583 nM. The matching figures for `Cn1cncc1C(=O)c1cccc(Cl)c1` [Example 22, (3-Chloro-phenyl)-(3-methyl-3H-imidazol-4-yl)-methanone]: 543 nM and 32.6 nM.

Regarding `Cn1cncc1C(=O)c1ccc(F)cc1` [Example 23, (4-Fluoro-phenyl)-(3-methyl-3H-imidazol-4-yl)-methanone], the EC50 in experiment [1] was found to be 151 nM; in experiment [2] it was 49.3 nM. As for `Cn1cncc1C(=O)c1cccc(F)c1` [Example 24, (3-Fluoro-phenyl)-(3-methyl-3H-imidazol-4-yl)-methanone], the half-maximal effective concentration (EC50) in experiment [1] amounted to 673 nM; in experiment [2], 65.2 nM. In the case of `CN1C(=O)CCc2cc(C(=O)c3cncn3C)ccc21` [Example 25, 1-Methyl-6-(3-methyl-3H-imidazole-4-carbonyl)-3,4-dihydro-1H-quinolin-2-one], the EC50 in experiment [1] came to 7880 nM; in experiment [2] it was 77 nM. Regarding `Cn1cncc1C(=O)c1ccc(C(C)(C)C)cc1` [Example 30, (4-tert-Butyl-phenyl)-(3-methyl-3H-imidazol-4-yl)-methanone], the half-maximal effective concentration (EC50) in experiment [1] stood at 9880 nM. `Cn1cncc1C(=O)c1ccc(S(C)(=O)=O)cc1` [Example 47, (4-Methanesulfonyl-phenyl)-(3-methyl-3H-imidazol-4-yl)-methanone] yielded a concentration giving a half-maximal response (EC50) in experiment [2] of 3530 nM.

Turning to `CC(=O)N(C)c1ccc(C(=O)c2cncn2C)cc1` [Example 55, N-Methyl-N-[4-(3-methyl-3H-imidazole-4-carbonyl)-phenyl]-acetamide], in experiment [2], a half-maximal response (EC50) required 923 nM.

In experiment [2], `Cn1cncc1C(=O)c1ccc(SC(F)(F)F)cc1` [Example 73, (3-Methyl-3H-imidazol-4-yl)-(4-trifluoromethylsulfanyl-phenyl)-methanone] gave a concentration for a half-maximal effect (EC50) of 390 nM. In experiment [1], `CN(C(=O)OC(C)(C)C)c1ccc(C(=O)c2cncn2C)cc1` [Example 85, Methyl-[4-(3-methyl-3H-imidazole-4-carbonyl)-phenyl]-carbamic acid tert-butyl ester] came in with an EC50 of 12500 nM.

For the origin of these results see patent US9464058B2 (Hoffmann-La Roche Inc., priority 2012, dated 2016).
